Results taken from BindingDB's records for doi:10.7270/Q2J67FB5 (Nmmlsc, 2007).

Each compound was assayed against T1, fMet-Leu-Phe receptor (Homo sapiens, UniProt P21462) (assay: formyl peptide receptor binders – dose response (AID 519)).
T1 sequence (P21462 whole entry): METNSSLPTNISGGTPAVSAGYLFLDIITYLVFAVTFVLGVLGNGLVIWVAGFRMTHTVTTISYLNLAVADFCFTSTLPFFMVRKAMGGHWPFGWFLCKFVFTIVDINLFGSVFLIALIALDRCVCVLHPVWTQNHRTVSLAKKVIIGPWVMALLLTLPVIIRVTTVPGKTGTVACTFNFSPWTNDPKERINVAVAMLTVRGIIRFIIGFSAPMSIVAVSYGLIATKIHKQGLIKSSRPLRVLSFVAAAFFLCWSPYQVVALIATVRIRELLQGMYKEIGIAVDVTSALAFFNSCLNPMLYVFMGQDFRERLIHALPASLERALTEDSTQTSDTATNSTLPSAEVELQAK

Row | Structure (SMILES) | IC50 [µM]
1 | COc1ccc(C2C(C(=O)c3ccco3)C(=O)C(=O)N2Cc2cccnc2)cc1OC (stereo not drawn) [2-(3,4-dimethoxyphenyl)-3-(furan-2-carbonyl)-4-hydroxy-1-(pyridin-3-ylmethyl)-2H-pyrrol-5-one] | > 66.7
2 | O=C1C(=O)N(c2ncccn2)C(c2ccc(Cl)cc2)C1C(=O)c1ccco1 (stereo not drawn) [2-(4-chlorophenyl)-3-(furan-2-carbonyl)-4-hydroxy-1-pyrimidin-2-yl-2H-pyrrol-5-one] | > 66.7
3 | O=C1C(=O)N(Cc2ccco2)C(c2ccccc2)C1C(=O)c1cccs1 (stereo not drawn) [1-(2-furanylmethyl)-4-hydroxy-3-[oxo(thiophen-2-yl)methyl]-2-phenyl-2H-pyrrol-5-one] | 35.2
4 | COc1ccc(C2C(C(=O)c3ccco3)C(=O)C(=O)N2CCc2ccccc2)cc1OC (stereo not drawn) [2-(3,4-dimethoxyphenyl)-3-(furan-2-carbonyl)-4-hydroxy-1-(2-phenylethyl)-2H-pyrrol-5-one] | 36.9
5 | CCOc1ccc(C2C(C(=O)c3ccco3)C(=O)C(=O)N2Cc2cccnc2)cc1 (stereo not drawn) [2-(4-ethoxyphenyl)-3-(furan-2-carbonyl)-4-hydroxy-1-(pyridin-3-ylmethyl)-2H-pyrrol-5-one] | 15.3
6 | Cc1ccc(C2C(C(=O)c3sc(C)nc3C)C(=O)C(=O)N2CCN2CCOCC2)o1 (stereo not drawn) [3-(2,4-dimethyl-1,3-thiazole-5-carbonyl)-4-hydroxy-2-(5-methylfuran-2-yl)-1-(2-morpholin-4-ylethyl)-2H-pyrrol-5-one] | > 66.7
7 | Cc1nc(C)c(C(=O)C2C(=O)C(=O)N(CCCn3ccnc3)C2c2ccc(Cl)cc2)s1 (stereo not drawn) [2-(4-chlorophenyl)-3-(2,4-dimethyl-1,3-thiazole-5-carbonyl)-4-hydroxy-1-(3-imidazol-1-ylpropyl)-2H-pyrrol-5-one] | > 66.7

More lines, now with the values ahead:

Row | IC50 [µM] | Structure (SMILES)
8 | 12.5 | Cc1ccsc1C1C2C(=O)CC(C)(C)CC2=Nc2ncnn21 (stereo not drawn) [6,6-dimethyl-9-(3-methyl-2-thienyl)-1,5,7,9-tetrahydro-[1,2,4]triazolo[5,1-b]quinazolin-8-one]
9 | > 66.7 | C=CCN1C(=O)C2(c3ccccc31)C(C(=O)c1ccc3c(c1)OCCO3)C(=O)C(=O)N2CCCOC (stereo not drawn) [(4'E)-1-allyl-4'-[2,3-dihydro-1,4-benzodioxin-6-yl(hydroxy)methylene]-1'-(3-methoxypropyl)spiro[indoline-3,5'-pyrrolidine]-2,2',3'-trione]
10 | 38.6 | COc1ccc(C2C(C(=O)c3ccccc3)C(=O)C(=O)N2CC(C)O)c(OC)c1 (stereo not drawn) [(4Z)-5-(2,4-dimethoxyphenyl)-4-[hydroxy(phenyl)methylene]-1-(2-hydroxypropyl)pyrrolidine-2,3-quinone]
11 | 20.8 | COC(=O)c1[nH]c(C)c(C(=O)C2C(=O)C(=O)N(CCN3CCOCC3)C2c2cccnc2)c1C (stereo not drawn) [4-[(E)-hydroxy-[1-[2-(4-morpholinyl)ethyl]-4,5-dioxo-2-(3-pyridinyl)-3-pyrrolidinylidene]methyl]-3,5-dimethyl-1H-pyrrole-2-carboxylic acid methyl ester]
12 | > 66.7 | O=C1C(=O)N(CCc2ccccc2)C(c2cccnc2)C1C(=O)c1ccco1 (stereo not drawn) [3-(furan-2-carbonyl)-4-hydroxy-1-(2-phenylethyl)-2-pyridin-3-yl-2H-pyrrol-5-one]
13 | 19.7 | COc1ccccc1C1C(C(=O)c2ccccc2)C(=O)C(=O)N1CCO (stereo not drawn) [(4Z)-1-(2-hydroxyethyl)-4-[hydroxy(phenyl)methylene]-5-(2-methoxyphenyl)pyrrolidine-2,3-quinone]
